# Columns and labels:
# Test in all cases: relative viability (nuclei count vs DMSO), 5 days (fraction); higher = more cells survive
# Irinotecan + Lapatinib = compound: CCc1c2c(nc3ccc(OC(=O)N4CCC(N5CCCCC5)CC4)cc13)-c1cc3c(c(=O)n1C2)COC(=O)[C@]3(O)CC [Irinotecan] + CS(=O)(=O)CCNCc1ccc(-c2ccc3ncnc(Nc4ccc(OCc5cccc(F)c5)c(Cl)c4)c3c2)o1 [Lapatinib] (partner 2 µM)
# How it was run: (§1)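 Relative viability equals treated-well nuclei counts divided by vehicle-well nuclei counts. Counts came from 4× images of lung cancer cell lines grown in 1536-well plates for 5 days after pin-tool dosing on the day after seeding. Dosing used one drug alone or a fixed anchor-drug dose plus five library-drug doses (not always all listed) in √10 steps, and values are medians of duplicate plates.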
# Irinotecan + Crizotinib = compound: CCc1c2c(nc3ccc(OC(=O)N4CCC(N5CCCCC5)CC4)cc13)-c1cc3c(c(=O)n1C2)COC(=O)[C@]3(O)CC [Irinotecan] + C[C@@H](Oc1cc(-c2cnn(C3CCNCC3)c2)cnc1N)c1c(Cl)ccc(F)c1Cl [Crizotinib] (partner 1 µM)
# How it was run: as §1
# MK-8033 + Dasatinib = compound: Cn1cc(-c2cnc3ccc4ccc(CS(=O)(=O)NCc5ccccn5)cc4c(=O)c3c2)cn1 [MK-8033] + Cc1nc(Nc2ncc(C(=O)Nc3c(C)cccc3Cl)s2)cc(N2CCN(CCO)CC2)n1 [Dasatinib] (partner 0.075 µM)
# How it was run: as §1
Cell Line,relative viability (Irinotecan + Lapatinib; first compound 0.6325 µM),relative viability (Irinotecan + Lapatinib; first compound 2 µM),relative viability (Irinotecan + Lapatinib; first compound 6.325 µM),relative viability (Irinotecan + Lapatinib; first compound 20 µM),relative viability (Irinotecan + Crizotinib; first compound 0.6325 µM),relative viability (Irinotecan + Crizotinib; first compound 2 µM),relative viability (Irinotecan + Crizotinib; first compound 6.325 µM),relative viability (Irinotecan + Crizotinib; first compound 20 µM),relative viability (MK-8033 + Dasatinib; first compound 0.02 µM),relative viability (MK-8033 + Dasatinib; first compound 0.06325 µM),relative viability (MK-8033 + Dasatinib; first compound 0.2 µM),relative viability (MK-8033 + Dasatinib; first compound 0.6325 µM),relative viability (MK-8033 + Dasatinib; first compound 2 µM)
HARA,0.749,0.339,0.17,0.118,0.705,0.204,0.208,0.161,0.28,0.255,0.223,0.188,0.258
H3255,0.206,0.214,0.224,0.23,0.741,0.539,0.383,0.251,0.366,0.347,0.299,0.319,0.438
NCI-H727,0.339,0.503,0.445,0.369,0.366,0.556,0.497,0.447,0.363,,0.464,0.435,0.322
EKVX,0.222,0.256,0.16,0.17,1.08,0.81,0.244,0.232,0.519,0.499,0.569,0.434,0.551
NCI-H1666,0.466,0.556,0.35,0.223,0.617,0.464,0.47,0.357,0.907,0.769,0.73,0.872,0.827
NCI-H1915,0.434,0.373,0.147,0.15,0.417,0.369,0.178,0.227,0.298,0.273,0.309,0.309,0.303
HCC-366,0.418,0.126,0.0457,0.0686,0.274,0.132,0.0524,0.0502,0.617,0.638,0.564,0.634,0.651
EPLC-272H,0.509,0.758,0.211,0.267,0.504,0.163,0.2,0.264,0.375,0.273,0.297,0.319,0.336
NCI-H1792,0.92,0.949,0.202,0.11,0.918,1.05,0.536,0.239,0.768,0.834,0.752,0.57,0.569
RERF-LC-KJ,0.833,0.692,0.439,0.364,0.785,0.533,0.322,0.342,0.648,0.742,0.752,0.631,0.746
NCI-H2126,,0.632,0.304,0.357,,0.58,0.361,0.354,0.601,0.556,0.597,0.601,0.573
ABC-1,1.05,1.17,0.646,0.574,,0.785,0.297,0.154,0.735,0.434,0.501,0.491,0.61
NCI-H1355,0.534,0.909,0.264,0.242,0.896,0.407,0.234,0.233,0.647,0.655,0.645,0.698,0.763
A-427,,0.752,0.221,0.179,,0.243,0.179,0.214,0.677,0.701,0.661,0.731,0.67
NCI-H3122,0.994,0.529,0.24,0.274,0.25,0.205,0.173,0.163,0.734,0.655,0.586,0.814,0.876
NCI-H1437,0.527,0.493,0.253,0.117,0.962,0.664,0.323,0.24,0.493,0.419,0.402,0.361,0.419
COR-L23,0.383,0.378,0.177,0.121,0.293,0.289,0.204,0.1,0.458,0.427,0.522,0.466,0.489
NCI-H1651,0.293,0.536,0.179,0.101,,0.693,0.479,0.135,0.412,0.331,0.285,0.433,0.388
NCI-H2087,0.299,0.3,0.168,0.205,0.476,0.396,0.259,0.203,0.95,0.852,0.754,0.763,0.772
NCI-H661,0.478,0.357,0.314,0.296,0.923,0.842,,0.517,0.886,0.818,0.783,0.766,0.858
LXF-289,0.881,0.883,0.315,0.236,0.726,0.549,0.247,0.208,0.197,0.213,0.208,0.189,0.215
LC-2-ad,0.416,0.291,0.172,0.132,0.359,0.314,0.258,0.186,0.547,0.437,,0.67,0.61
NCI-H2085,0.592,0.608,0.473,0.515,0.845,0.622,0.511,0.537,0.209,0.246,0.247,0.265,0.225

# From the supplement of paper PMC10307832
